The source of these data is US20260021051A1, “PHARMACEUTICAL FORMULATIONS” (VIVUS LLC, priority 2015, published 2026).

Where two headings read alike, the source gives them in different places. Bounds are passed on as bounds.

Series [1] is described as follows: Solubility of tacrolimus in vehicles (shaken, filtered, HPLC). The series is classed as physicochemical. The procedure:
The solubility of tacrolimus was obtained in Maisine® 35-1, sesame oil, Miglyol® 812, Caspmul MCM EP, Labrafil M 2125 CS, peceol, Capryol 90, Lauroglycol FCC, Span 80, caprylic acid, Transcutol HP, Tween 80 (polysorbate 80), Kolliphor EL (Cremophor EL), labrasol, Vitamin E TPGS, PEG 400, propylene glycol, ethanol, Phosal 50 PG, triethylcitrate, and PEG 3350. In general, tacrolimus (˜15 mg) was added to approximately 250 mg of the vehicles. After the first addition of the API, the mixtures were shaken in a temperature-controlled vortex mixer for 24 hours at 25° C. (50° C. for Vitamin E TPGS and 60° C. for PEG 3350) then examined for solid residues. If no residue was observed, further addition of API was performed until the total API added was ˜55 mg. After the final addition, samples were further shaken at temperature for at least 24 h. After the incubation, each sample was examined visually for solid residues. Suspensions were filtered using a centrifuge tube with 0.45 μm PVDF membrane filter (Millipore Durapore®). The thick filtrate was weighed in to a 5-mL volumetric flask and diluted to mark with the HPLC diluent. Biphasic mixtures were vialed, spun on a centrifuge, and the clear solution was separated from the oily phase. All samples were prepared protected from light.

The conditions of series [2]: cited from earlier work.
For series [3] the following is noted: cited from earlier work. The source holds these as a separate data set.

As for `C=CC[C@@H]1/C=C(\C)C[C@H](C)C[C@H](OC)[C@H]2O[C@@](O)(C(=O)C(=O)N3CCCC[C@H]3C(=O)O[C@H](/C(C)=C/[C@@H]3CC[C@@H](O)[C@H](OC)C3)[C@H](C)[C@@H](O)CC1=O)[C@H](C)C[C@@H]2OC` (relative stereo) [Tacrolimus, [3S-[3R*[E(1S*,3S*,4S*)], 4S*,5R*,8S*,9E,12R*,14R*,15S*,16R*,18S*, 19S*,26-aR*]]-5,6,8,11,12,13,14,15,16,17,18,19,24,25,26a-hexadecahydro-5,19-dihydroxy-3-[2-(4-hydroxy-3-methoxycyclohexyl)-1-methylethenyl]-14,16-dimethoxy-4,10,12,18-tetramethyl-8-(2-propenyl)-15,19-epoxy-3H-pyrido [2,1-c][1,4]oxazacyclotricosine-1,7,20,21 (4H,23H)-tetrone, monohydrate], the solubility in series [1] (in Capryol 90, 25° C.) is given as > 56 mg of API per gram of solvent; in series [1] (in Caspmul MCM EP, 25° C.) it was > 56 mg of API per gram of solvent; in series [1] (in PEG 400, 25° C.), > 56 mg of API per gram of solvent; in series [1] (in PEG 3350, 60° C.), > 56 mg of API per gram of solvent; in series [1] (in Phosal 50 PG, 25° C.), > 56 mg of API per gram of solvent; in series [1] (in Vitamin E TPGS, 50° C.), > 56 mg of API per gram of solvent. The solubility in series [1] (in caprylic acid, 25° C.) is recorded as > 56 mg of API per gram of solvent; in series [1] (in ethanol, 25° C.), > 56 mg of API per gram of solvent; in series [1] (in labrasol, 25° C.) it was > 56 mg of API per gram of solvent; in series [1] (in propylene glycol, 25° C.), > 56 mg of API per gram of solvent; in series [1] (in triethylcitrate, 25° C.) it was > 56 mg of API per gram of solvent; in series [2] (in chloroform), “very soluble”. Moreover, the solubility result was “freely soluble” in series [2] (in ethanol), “very soluble” in series [2] (in methanol) and “practically insoluble” in series [2] (in water). Also, the “time to peak concentration” value in series [3] (after oral administration) is 0.5 to 4 h. In addition, the “volume of distribution (VolD) based on plasma” value in series [3] (based on plasma) is 5 to 65 L/kg of body weight. Also, in series [3] (in vivo), the half-life for distribution was 54 min. The protein binding in series [3] (in vivo) is given as 75 to 99%. For the same compound, in series [3] (in vivo), the “whole blood concentrations relative to plasma concentrations” value is given as 12 to 67 times. The “bioavailability of the oral dosage form (range)” value in series [3] (oral) is recorded as 5 to 65%. Further, the “mean bioavailability of the oral dosage form” value in series [3] (oral) is listed as “about 27%”.
